Assay: Stability of polymorphs: stirring in dimethyl carbonate, crystals characterised by DSC and pXRD
Assay type: physicochemical
Conditions: stirred in 5 ml dimethyl carbonate for two days, crystals isolated, air dried
Experimental: Powder X-ray diffraction analysis of solid material was carried out using the Bruker D8 powder diffractometer at room temperature and at relative humidities above 40%. Samples were mounted in Perspex sample holders and the samples flattened. The sample holder was rotated and X-rays were collected from 4° to 34° 2-theta, with a scan time of 25 to 30 minutes depending on the pattern intensity.
DSC was carried out using a Mettler Toledo DSC1. A sample loading of around 5 mg was used and this was heated from 25° C. to 160° C. at a rate of 10° C./minute. The lid of the DSC crucible was pierced to allow the escape of any gas formed during the heating of the sample.
A sample of the polymorph designated Form A(c) was stirred in 5 ml dimethyl carbonate for two days. The crystals were isolated, air dried and characterised by DSC and pXRD.

In the case of CCN1OC[C@@H](NC(=O)c2ccc(C3=NO[C@@](c4cc(Cl)c(F)c(Cl)c4)(C(F)(F)F)C3)cc2C)C1=O [Form A(c)], the “Polymorphic stability (solid form found after stirring)” value is reported as “all of the Form A(c) had converted into Form (A)a”.

From patent US11104672B2, “Polymorphs” (Syngenta Participations AG, priority 2017, dated 2021)
